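Dose response: 5 concentrations. Exposure: 48 h. Format: 96-well plates. Endpoint: linear interpolation; highest concentration if not reached. GI50 marks 50% less growth.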 Activity calls are given as the source filed them. Cut-off read from the data, not from the text of the source: active = GI50 up to about 1.1 µM and inactive = higher.
Experiments:
Assay in all cases: DTP human tumour cell line panel, 48 h
A549 = system: A549
MDA-MB-435 = system: MDA-MB-435
RXF 393 = system: RXF 393
UACC-257 = system: UACC-257
K562 = system: K562
RPMI-8226 = system: RPMI-8226
MOLT-4 = system: MOLT-4
HCT-15 = system: HCT-15
HCC 2998 = system: HCC 2998
EKVX = system: EKVX
ACHN = system: ACHN
NCI-H460 = system: NCI-H460
HT-29 = system: HT-29
MDA-MB-231 = system: MDA-MB-231
786-0 = system: 786-0
M14 = system: M14
LOX IMVI = system: LOX IMVI
HOP-92 = system: HOP-92
OVCAR-4 = system: OVCAR-4
KM12 = system: KM12
MCF7 = system: MCF7
SK-OV-3 = system: SK-OV-3
NCI/ADR-RES = system: NCI/ADR-RES
U-251 = system: U-251
OVCAR-8 = system: OVCAR-8
SK-MEL-2 = system: SK-MEL-2
MDA-N = system: MDA-N
IGROV-1 = system: IGROV-1
OVCAR-5 = system: OVCAR-5
SF-295 = system: SF-295
SNB-75 = system: SNB-75
SN12C = system: SN12C
A498 = system: A498
HOP-62 = system: HOP-62
HCT-116 = system: HCT-116
CAKI-1 = system: CAKI-1
SW-620 = system: SW-620
UO-31 = system: UO-31
SNB-19 = system: SNB-19
NCI-H23 = system: NCI-H23
OVCAR-3 = system: OVCAR-3
COLO 205 = system: COLO 205
HL-60 = system: HL-60
SK-MEL-5 = system: SK-MEL-5
SF-268 = system: SF-268
CCRF-CEM = system: CCRF-CEM
DU-145 = system: DU-145
BT-549 = system: BT-549
PC-3 = system: PC-3
T47D = system: T47D
TK-10 = system: TK-10
SR = system: SR
Hs-578T = system: Hs-578T
NCI-H226 = system: NCI-H226
SF-539 = system: SF-539
NCI-H522 = system: NCI-H522
UACC-62 = system: UACC-62
SK-MEL-28 = system: SK-MEL-28
Malme-3M = system: Malme-3M

Measured: GI50

COc1ccc(C(=O)c2ccc(-n3c4ccccc4c4ccc5c(c43)C(=O)C=CC5=O)cc2)cc1
active: RXF 393 845 nM | K562 0.676 µM | RPMI-8226 0.794 µM | MOLT-4 0.348 µM | ACHN 0.8 µM | HT-29 1.06 µM | 786-0 0.586 µM | MCF7 0.855 µM | HCT-116 0.92 µM | CAKI-1 0.164 µM | SW-620 1 µM | UO-31 0.52 µM | HL-60 495 nM | SF-268 0.647 µM | CCRF-CEM 367 nM | T47D 1.06 µM | NCI-H522 0.217 µM
1900 nM: HCT-15
inactive: A549 3.17 µM | MDA-MB-435 1.39 µM | UACC-257 2.54 µM | HCC 2998 5.61 µM | EKVX 1.86 µM | NCI-H460 4.61 µM | MDA-MB-231 1.94 µM | M14 2.53 µM | LOX IMVI 1.25 µM | HOP-92 1.99 µM | OVCAR-4 2.55 µM | KM12 3.68 µM | SK-OV-3 13.7 µM | NCI/ADR-RES 2.62 µM | U-251 1.69 µM | OVCAR-8 1.81 µM | SK-MEL-2 3.88 µM | MDA-N 2.72 µM | IGROV-1 2.61 µM | OVCAR-5 19.5 µM | SF-295 5.43 µM | SNB-75 3.66 µM | SN12C 1.45 µM | A498 1.58 µM | HOP-62 12.5 µM | SNB-19 4.19 µM | NCI-H23 1.7 µM | OVCAR-3 1.14 µM | COLO 205 2.89 µM | SK-MEL-5 4.27 µM | DU-145 3.1 µM | BT-549 3.21 µM | PC-3 1.5 µM | TK-10 1.43 µM | SR 1.32 µM | Hs-578T 1.69 µM | NCI-H226 17.3 µM | SF-539 2.61 µM | UACC-62 3.03 µM | SK-MEL-28 2.99 µM

CCOC(=O)C1=C(C#N)S(=O)(=O)c2c(oc(C)c2C)N1
inactive: A549 > 100 µM | MDA-MB-435 > 100 µM | UACC-257 > 100 µM | K562 > 100 µM | RPMI-8226 > 100 µM | MOLT-4 > 100 µM | HCC 2998 > 100 µM | EKVX > 100 µM | ACHN > 100 µM | NCI-H460 > 100 µM | HT-29 > 100 µM | MDA-MB-231 > 100 µM | 786-0 > 100 µM | M14 > 100 µM | Malme-3M > 100 µM | LOX IMVI > 100 µM | HOP-92 > 100 µM | OVCAR-4 > 100 µM | KM12 > 100 µM | MCF7 > 100 µM | SK-OV-3 > 100 µM | NCI/ADR-RES > 100 µM | U-251 > 100 µM | OVCAR-8 > 100 µM | SK-MEL-2 > 100 µM | MDA-N > 100 µM | IGROV-1 > 100 µM | OVCAR-5 > 100 µM | SF-295 > 100 µM | SNB-75 > 100 µM | SN12C > 100 µM | A498 > 100 µM | HOP-62 > 100 µM | HCT-116 > 100 µM | CAKI-1 > 100 µM | SW-620 > 100 µM | UO-31 > 100 µM | SNB-19 > 100 µM | NCI-H23 > 100 µM | OVCAR-3 > 100 µM | COLO 205 > 100 µM | SK-MEL-5 > 100 µM | SF-268 > 100 µM | DU-145 > 100 µM | BT-549 > 100 µM | PC-3 > 100 µM | T47D > 100 µM | TK-10 > 100 µM | SR > 100 µM | Hs-578T > 100 µM | NCI-H226 > 100 µM | SF-539 > 100 µM | NCI-H522 > 100 µM | UACC-62 > 100 µM | SK-MEL-28 > 100 µM
> 100000 nM: HCT-15
